Measurements as given in patent EP0428132A1, “Pradimicin derivatives” (Bristol-Myers Squibb Company, priority 1989, dated 1991).
Values after ≈ are worked out from the molar mass of the structure shown.

What was measured:
[1] = Water solubility, protocol I (PBS, HPLC); assay type: physicochemical; conditions: Method I: PBS without CaCl₂ and MgCl₂.6H₂O
Protocol: The supernatant (2 µL) was analyzed by HPLC using the conditions specified for each compound in the Experimental Section. […] When not soluble, an additional amount of PBS (x µL) was added, sonicated, and centrifuged. When visibly soluble, the solution (2 µL) was injected to HPLC and the peak area was used for the known concentration of the sample.

[2] = test system: Candida paratropicalis A25825; assay: In vitro antifungal activity, serial agar dilution method (Table 1a); assay type: cell-based; conditions: YM agar (pH 7.0, Difco); 30°C for 2 days (yeast) or 4 days (filamentous fungi); read-out: MICs, Candida paratropicalis A25825
Protocol: (§1) The inoculum size was adjusted to 10⁶ cells/ml, and a volume of approximately 0.003 ml of fungal suspension was applied to the surface of the antibiotic containing agar plates with a multiinoculator. After incubation, the lowest concentration of antibiotic causing virtually complete inhibition of fungal growth was determined as the minimum inhibitory concentration (MIC).

[3] = test system: Candida tropicalis A25812; assay: as above; assay type: cell-based; conditions: A25812, YM agar (pH 7.0, Difco), 30°C for 2 days (yeast) or 4 days (filamentous fungi), read-out: MICs, Candida tropicalis A25812
Protocol: as §1

[4] = test system: Candida pseudotropicalis A25802; assay: as above; assay type: cell-based; conditions: Kluyveromyces marxianus, YM agar (pH 7.0, Difco), 30°C for 2 days (yeast) or 4 days (filamentous fungi), read-out: MICs, Candida pseudotropicalis A25802
Protocol: as §1

[5] = test system: Saccharomyces cerevisiae A25803; assay: as above; assay type: cell-based; conditions: YM agar (pH 7.0, Difco), 30°C for 2 days (yeast) or 4 days (filamentous fungi), read-out: MICs, Saccharomyces cerevisiae A25803
Protocol: as §1

Candida albicans A25578 = assay: as above; assay type: cell-based; conditions: A25578, YM agar (pH 7.0, Difco), 30°C for 2 days (yeast) or 4 days (filamentous fungi), read-out: MICs, Candida albicans A25578
Protocol: as §1

[6] = test system: Microsporum canis WW10218; assay: as above; assay type: cell-based; conditions: WW10218, pH 7, read-out: MICs, Microsporum canis WW10218
Protocol: as §1

[7] = test system: Trichophyton mentagrophytes A26771; assay: as above; assay type: cell-based; conditions: A26771, YM agar (pH 7.0, Difco), 30°C for 2 days (yeast) or 4 days (filamentous fungi), read-out: MICs, Trichophyton mentagrophytes A26771
Protocol: as §1

[8] = test system: Candida tropicalis A25809; assay: as above; assay type: cell-based; conditions: YM agar (pH 7.0, Difco), 30°C for 2 days (yeast) or 4 days (filamentous fungi), read-out: MICs, Candida tropicalis A25809
Protocol: as §1

Candida albicans A9540 [9] = assay: as above; assay type: cell-based; conditions: A9540, YM agar (pH 7.0, Difco), 30°C for 2 days (yeast) or 4 days (filamentous fungi), read-out: MICs, Candida albicans A9540
Protocol: as §1

[10] = test system: Trichophyton rubrum A26761; assay: as above; assay type: cell-based; conditions: A26761, pH 7, read-out: MICs, Trichophyton rubrum A26761
Protocol: as §1

[11] = test system: Cryptococcus neoformans A15053; assay: as above; assay type: cell-based; conditions: A15053, YM agar (pH 7.0, Difco), 30°C for 2 days (yeast) or 4 days (filamentous fungi), read-out: MICs, Cryptococcus neoformans A15053
Protocol: as §1

[12] = test system: Microsporum gypseum WW1107; assay: as above; assay type: cell-based; conditions: Nannizzia gypsea, YM agar (pH 7.0, Difco), 30°C for 2 days (yeast) or 4 days (filamentous fungi), read-out: MICs, Microsporum gypseum WW1107
Protocol: as §1

FA21436 = assay: In vitro antifungal activity, serial agar dilution method (Table 1); assay type: cell-based, Asoergukkys flavus; conditions: 40 h, pH 7, read-out: MIC, Asoergukkys flavus FA21436
Protocol: as §1, with “(MIC). Table 1. [table]” for “(MIC).”

[13] = test system: Aspergillus fumigatus IAM2530; assay: as above; assay type: cell-based; conditions: Aspergillus fumigatus, IAM2530; Sabouraud dextrose agar (pH 7.0); 28°C for 40 hours
Protocol: as §1, with “(MIC). Table 1. [table]” for “(MIC).”

[14] = test system: Blastomyces dermatidis D40; assay: as above; assay type: cell-based; conditions: Blastomyces, D40, 40 h, pH 7, read-out: MIC, Blastomyces dermatidis D40
Protocol: as §1, with “(MIC). Table 1. [table]” for “(MIC).”

[15] = test system: Petriellidium boydii IFO8078; assay: as above; assay type: cell-based; conditions: Scedosporium boydii, IFO8078; Sabouraud dextrose agar (pH 7.0); 28°C for 40 hours
Protocol: as §1, with “(MIC). Table 1. [table]” for “(MIC).”

Mucor spinosus IFO5317 = assay: as above; assay type: cell-based; conditions: Mucor spinosus, IFO5317; Sabouraud dextrose agar (pH 7.0); 28°C for 40 hours
Protocol: as §1, with “(MIC). Table 1. [table]” for “(MIC).”

[16] = test system: Trichophyton mentagrophytes D155; assay: as above; assay type: cell-based; conditions: Trichophyton mentagrophytes, D155; Sabouraud dextrose agar (pH 7.0); 28°C for 40 hours
Protocol: as §1, with “(MIC). Table 1. [table]” for “(MIC).”

[17] = test system: Sprotricosis schenckii IFO8158; assay: as above; assay type: cell-based; conditions: 40 h, pH 7, read-out: MIC, Sprotricosis schenckii IFO8158
Protocol: as §1, with “(MIC). Table 1. [table]” for “(MIC).”

Candida albicans IAM4888 = assay: as above; assay type: cell-based; conditions: Candida albicans, IAM4888; Sabouraud dextrose agar (pH 7.0); 28°C for 40 hours
Protocol: as §1, with “(MIC). Table 1. [table]” for “(MIC).”

[18] = test system: Cryptococcus neoformans D49; assay: as above; assay type: cell-based; conditions: Cryptococcus neoformans, D49, 40 h, pH 7, read-out: MIC, Cryptococcus neoformans D49
Protocol: as §1, with “(MIC). Table 1. [table]” for “(MIC).”

[19] = test system: Trichophyton mentagrophytes #4329; assay: as above; assay type: cell-based; conditions: Trichophyton mentagrophytes; Sabouraud dextrose agar (pH 7.0); 28°C for 40 hours
Protocol: as §1, with “(MIC). Table 1. [table]” for “(MIC).”

[20] = test system: Cryptococcus neoformans IAM4514; assay: as above; assay type: cell-based; conditions: Cryptococcus neoformans, IAM4514; Sabouraud dextrose agar (pH 7.0); 28°C for 40 hours
Protocol: as §1, with “(MIC). Table 1. [table]” for “(MIC).”

Candida albicans A9540 [21] = assay: as above; assay type: cell-based; conditions: Candida albicans, A9540; Sabouraud dextrose agar (pH 7.0); 28°C for 40 hours
Protocol: as §1, with “(MIC). Table 1. [table]” for “(MIC).”

[22] = test system: Aspergillus fumigatus IAM2034; assay: as above; assay type: cell-based; conditions: Aspergillus fumigatus, IAM2034; Sabouraud dextrose agar (pH 7.0); 28°C for 40 hours
Protocol: as §1, with “(MIC). Table 1. [table]” for “(MIC).”

[23] = test system: Fusarium moniliforme A2284; assay: as above; assay type: cell-based; conditions: Fusarium verticillioides, A2284; Sabouraud dextrose agar (pH 7.0); 28°C for 40 hours
Protocol: as §1, with “(MIC). Table 1. [table]” for “(MIC).”

Row | Structure (SMILES) | solubility [1] [µg/mL] | MIC [2] [µg/mL] | MIC [3] [µg/mL] | MIC [4] [µg/mL] | MIC [5] [µg/mL] | MIC (Candida albicans A25578) [µg/mL] | MIC [6] [µg/mL] | MIC [7] [µg/mL] | MIC [8] [µg/mL] | MIC (Candida albicans A9540 [9]) [µg/mL] | MIC [10] [µg/mL] | MIC [11] [µg/mL] | MIC [12] [µg/mL] | MIC (FA21436) [µg/mL] | MIC [13] [µg/mL] | MIC [14] [µg/mL] | MIC [15] [µg/mL] | MIC (Mucor spinosus IFO5317) [µg/mL] | MIC [16] [µg/mL] | MIC [17] [µg/mL] | further results
1 | CCOC(=O)CN(C)[C@@H]1[C@H](O)[C@@H](O)[C@H](O[C@H]2c3cc(C)c(C(=O)N[C@H](C)C(=O)O)c(O)c3-c3c(cc4c(c3O)C(=O)c3cc(OC)cc(O)c3C4=O)[C@@H]2O)O[C@@H]1C [Ex. 6, N-(ethoxycarbonylmethyl) pradimicin B] | > 4000 | 6.3 (≈ 7.93 µM) | 3.2 (≈ 4.03 µM) | 1.6 (≈ 2.01 µM) | 0.8 (≈ 1.01 µM) | 3.2 (≈ 4.03 µM) | 1.6 (≈ 2.01 µM) | 6.3 (≈ 7.93 µM) | 1.6 (≈ 2.01 µM) | 6.3 (≈ 7.93 µM) | 6.3 (≈ 7.93 µM) | 1.6 (≈ 2.01 µM) | 12.5 (≈ 15.7 µM) | – | – | – | – | – | – | – | –
2 | COc1cc(O)c2c(c1)C(=O)c1c(cc3c(c1O)-c1c(cc(C)c(C(=O)N[C@H](C)C(=O)O)c1O)[C@H](O[C@@H]1O[C@H](C)[C@H](N(C)C/C=C/C(=O)O)[C@H](O[C@@H]4OC[C@@H](O)[C@H](O)[C@H]4O)[C@H]1O)[C@H]3O)C2=O [Ex. 13, N-(trans-3-carboxy-2-propenyl) pradimicin A] | – | – | – | – | – | – | – | – | – | – | – | – | – | 100 (≈ 108 µM) | 100 (≈ 108 µM) | > 100 | > 100 | > 100 | > 100 | 100 (≈ 108 µM) | MIC (Candida albicans IAM4888): 50 µg/mL (≈ 54.1 µM); MIC [18]: 50 µg/mL (≈ 54.1 µM); MIC [19]: > 100 µg/mL; MIC [20]: 25 µg/mL (≈ 27 µM); MIC (Candida albicans A9540 [21]): 100 µg/mL (≈ 108 µM); MIC [22]: 100 µg/mL (≈ 108 µM); MIC [23]: > 100 µg/mL
3 | COc1cc(O)c2c(c1)C(=O)c1c(cc3c(c1O)-c1c(cc(C)c(C(=O)N[C@H](C)C(=O)O)c1O)[C@H](O[C@@H]1O[C@H](C)[C@H](N(C)C(=O)CN(C)C)[C@H](O)[C@H]1O)[C@H]3O)C2=O [Ex. 15, N-(N,N-dimethylglycyl) pradimicin B] | 2000 (≈ 2520 µM) | 6.3 (≈ 7.94 µM) | 6.3 (≈ 7.94 µM) | 1.6 (≈ 2.02 µM) | 3.2 (≈ 4.03 µM) | 3.2 (≈ 4.03 µM) | 6.4 (≈ 8.06 µM) | 12.5 (≈ 15.7 µM) | 3.2 (≈ 4.03 µM) | 6.3 (≈ 7.94 µM) | 2.5 (≈ 3.15 µM) | 3.2 (≈ 4.03 µM) | 12.5 (≈ 15.7 µM) | – | – | – | – | – | – | – | –
4 | COc1cc(O)c2c(c1)C(=O)c1c(cc3c(c1O)-c1c(cc(C)c(C(=O)N[C@H](C)C(=O)O)c1O)[C@H](O[C@@H]1O[C@H](C)[C@H](N(C)C(=O)CN(C)C)[C@H](O[C@@H]4OC[C@@H](O)[C@H](O)[C@H]4O)[C@H]1O)[C@H]3O)C2=O [Ex. 16, N-(N,N-Dimethylglycyl) pradimicin A] | – | – | – | – | – | – | – | – | – | – | – | – | – | > 50 | 12.5 (≈ 13.5 µM) | 50 (≈ 54 µM) | > 50 | > 50 | 6.3 (≈ 6.8 µM) | 6.3 (≈ 6.8 µM) | MIC (Candida albicans IAM4888): 6.3 µg/mL (≈ 6.8 µM); MIC [18]: 3.4 µg/mL (≈ 3.67 µM); MIC [19]: 6.3 µg/mL (≈ 6.8 µM); MIC [20]: 3.1 µg/mL (≈ 3.35 µM); MIC (Candida albicans A9540 [21]): 6.3 µg/mL (≈ 6.8 µM); MIC [22]: 12.5 µg/mL (≈ 13.5 µM); MIC [23]: > 50 µg/mL
